According to EP1916301A1, “METHOD FOR […] USING MOLECULE ON THE RB PATHWAY AS INDEX AND MOLECULAR […]” (BANYU PHARMACEUTICAL CO., LTD., priority 2005, dated 2007):

Tests used:
U-2 OS cell = test: Cell cycle analysis by flow cytometry (DNA staining) after doxorubicin treatment; format: cell-based; conditions: for cell cycle arrest: 10 nM doxorubicin
Method: (§1) First, the U-2 OS cell and U-2 OS shRb cell were treated with 10 nM doxorubicin. The cells were collected after 24 hours and 48 hours, and the DNA of the cells were stained with the Cycle TESTTM PLUS DNA Reagent Kit (Becton Dickinson), and an analysis was carried out by flow cytometry.
(§2) Further, in what phase the respective cells were maintained in the cell cycle under the respective conditions is shown in Table 2. (Table 2)

U-2 OS shRb cell = test: Cell cycle analysis by flow cytometry (DNA staining) after doxorubicin treatment, Rb knockdown cell; format: cell-based
Method: Into U-2 OS cells with wild-type Rb, pSuperior-puro.shRb vector was transfected using Funege 6. After the transfected cells were cultured for 24 hours, the cells were cultured such that the number of cells became about one fiftieth, and then, the cells were cultured for about two weeks in the presence of 1.0 µg/mL of puromycin. A cell that formed a colony was isolated by a cylinder cloning method. Hereinafter, the established Rb knockdown cell was referred to as U-2 OS shRb.
as §1, §2

[1] = 10 nM doxorubicin for 24 hours, cell having only a vector introduced (Fig. 4)
[2] = 10 nM doxorubicin for 48 hours, cell having only a vector introduced (Fig. 5)
[3] = 10 nM doxorubicin for 24 hours, cell having an Rb shRNA introduced (Fig. 7)
[4] = 10 nM doxorubicin for 48 hours, cell having an Rb shRNA introduced (Fig. 8)

With `COc1cccc2c1C(=O)c1c(O)c3c(c(O)c1C2=O)C[C@@](O)(C(=O)CO)C[C@@H]3O[C@H]1C[C@H](N)[C@H](O)[C@H](C)O1` [doxorubicin] the “G1 (%)” value (U-2 OS cell; [1]) was 20%, the “G2/M (%)” value (U-2 OS cell; [1]) was 68% and the “S (%)” value (U-2 OS cell; [1]) was 11%. For the same compound, the “G1 (%)” value (U-2 OS cell; [2]) was 29%, the “G2/M (%)” value (U-2 OS cell; [2]) was 66% and the “S (%)” value (U-2 OS cell; [2]) was 5.4%. For the same compound, the cell cycle arrest (U-2 OS cell; at 24 hours after the treatment) was “arrested in the G2/M phase”, the cell cycle arrest (U-2 OS cell; at 48 hours after the treatment) was “arrested in the G2/M phase” and the “G1 (%)” value (U-2 OS shRb cell; [3]) was 35%. The “G2/M (%)” value (U-2 OS shRb cell; [3]) was 45%, the “S (%)” value (U-2 OS shRb cell; [3]) was 19% and the “G1 (%)” value (U-2 OS shRb cell; [4]) was 62%. The “G2/M (%)” value (U-2 OS shRb cell; [4]) was 23%, the “S (%)” value (U-2 OS shRb cell; [4]) was 16% and the cell cycle arrest (U-2 OS shRb cell; 10 nM doxorubicin, at 24 hours after the treatment) was “arrested in the G2/M phase”. For the same compound, the G2/M phase arrest (U-2 OS shRb cell; 10 nM doxorubicin, at 48 hours after the treatment) was “not maintained”.
